Measurements published in patent US5488035A (priority 1991, dated 1996).
Read-outs that look alike come from different tables or passages of the source. Bridge positions count the residues as written; N and C are the ends. Peptide text beside a SMILES is read from it.

Legend:
Assay type in all cases: cell-based
[1] = test system: AFL 001 (Aspergillus flavus); experiment: Minimum inhibitory concentration; settings: for MIC AFL 001: MIC Comparisons; for Dependence of MIC on buffer pH, AFL 001: buffer pHs of from 5.0 to 8.0
Experimental: Decreasing tested concentrations of tachyplesin were against the preceding four organisms plus Fusarium moniliforme and Sclerotinia sclerotiorum to determine the minimum inhibitory concentration, and this was compared with other antimicrobial compounds. Results were as follows:
The MICs of tachyplesin, defensin and hordothionin (μg/ml) were measured against FGR 008 and AFL 001 across a range of buffer pHs and ionic strengths to determine their suitability as plant antimicrobials under varying conditions.

[2] = test system: FGR 005 (Fusarium graminearum); settings: MIC Comparisons
[3] = test system: FMO 001 (Fusarium moniliforme); experiment: Minimum inhibitory concentration; settings: MIC Comparisons
Text: (§1) Decreasing tested concentrations of tachyplesin were against the preceding four organisms plus Fusarium moniliforme and Sclerotinia sclerotiorum to determine the minimum inhibitory concentration, and this was compared with other antimicrobial compounds.

[4] = test system: SSC 002 (Sclerotinia sclerotiorum); experiment: Minimum inhibitory concentration; settings: MIC Comparisons
Text: as §1

[5] = test system: FGR 008 (Fusarium graminearum)
[6] = test system: Fusarium graminearum, isolate 8 (FGR 008); settings: Example 2, scale 0-4
[7] = test system: Fusarium graminearum, isolate 5 (FGR 005); settings: for Score (antifungal activity), Fusarium graminearum, isolate 5: Example 1, 100 μg/ml; for Score FGR 005: Example 2, scale 0-4
[8] = test system: Sclerotinia trifoliorum, isolate 1; experiment: Antifungal activity score; settings: Example 1, 100 μg/ml
Experimental: (§2) The tachyplesin was used at a concentration of 100 μg/ml as determined by absorption spectrum was screened against four common plant pathogens in both crude and oxidized forms. Antifungal activity was scored on a scale of 0 to 4, with 0 being no inhibition observed relative to a water control, and 4 being complete inhibition. Two reps were done for each treatment.

[9] = test system: Aspergillus flavus, isolate 1 (AFL 001); experiment: Antifungal activity score, decreasing concentrations; settings: Example 2, scale 0-4
Experimental: as §2, with “treatment. Results were as follows:” for “treatment.”
as §1

[10] = test system: FMO 001 (Fusarium moniliforme); experiment: as above; settings: Example 2, scale 0-4
Experimental: as §2, with “treatment. Results were as follows:” for “treatment.”
as §1

[11] = test system: SSC 002 (Sclerotinia sclerotiorum); experiment: as above; settings: Example 2, scale 0-4
Experimental: as §2, with “treatment. Results were as follows:” for “treatment.”
as §1

[12] = test system: SSC ascospores (Sclerotinia sclerotiorum); experiment: as above; settings: Example 2, scale 0-4
Experimental: as §2, with “treatment. Results were as follows:” for “treatment.”
as §1

hordothionin
MIC AFL 001 ([1]; value before parentheses): 15 µg/mL | MIC AFL 001 ([1]; value in parentheses): 3 µM | Dependence of MIC on buffer pH, AFL 001 [1]: None of the antimicrobials showed a discernible trend or optimum | MIC FGR 005 ([2]; value before parentheses): 5 µg/mL | MIC FGR 005 ([2]; value in parentheses): 1 µM | MIC FMO 001 ([3]; value before parentheses): 45 µg/mL | MIC FMO 001 ([3]; value in parentheses): 9 µM | MIC SSC 002 ([4]; value before parentheses): 30 µg/mL | MIC SSC 002 ([4]; value in parentheses): 6 µM | Dependence of MIC on buffer pH, FGR 008 ([5]; buffer pHs of from 5.0 to 8.0): None of the antimicrobials showed a discernible trend or optimum

tachyplesin [tachyplesin oxidized]
Score FGR 008 ([6]; 1.56 μg/ml (0.7 μM)): 0.0 | Score FGR 008 ([6]; 3.13 μg/ml (1.4 μM)): 0.0 | Score FGR 008 ([6]; 6.25 μg/ml (2.8 μM)): 2.0 | Score FGR 008 ([6]; 12.5 μg/ml (5.6 μM)): 4.0 | Score FGR 008 ([6]; 25 μg/ml (11.1 μM)): 4.0 | Score FGR 008 ([6]; 50 μg/ml (22.2 μM)): 4.0 | Score FGR 008 ([6]; 100 μg/ml (44.4 μM)): 4.0 | Score (antifungal activity), Fusarium graminearum, isolate 5 [7]: 4.0 | Score FGR 005 ([7]; 1.56 μg/ml (0.7 μM)): 0.0 | Score FGR 005 ([7]; 3.13 μg/ml (1.4 μM)): 0.0 | Score FGR 005 ([7]; 6.25 μg/ml (2.8 μM)): 2.25 | Score FGR 005 ([7]; 12.5 μg/ml (5.6 μM)): 3.5 | Score FGR 005 ([7]; 25 μg/ml (11.1 μM)): 4.0 | Score FGR 005 ([7]; 50 μg/ml (22.2 μM)): 4.0 | Score FGR 005 ([7]; 100 μg/ml (44.4 μM)): 4.0 | Score (antifungal activity), Sclerotinia trifoliorum, isolate 1 [8]: 4.0 | Score AFL 001 ([9]; 1.56 μg/ml (0.7 μM)): 0.0 | Score AFL 001 ([9]; 3.13 μg/ml (1.4 μM)): 0.0 | Score AFL 001 ([9]; 6.25 μg/ml (2.8 μM)): 1.0 | Score AFL 001 ([9]; 12.5 μg/ml (5.6 μM)): 1.5 | Score AFL 001 ([9]; 25 μg/ml (11.1 μM)): 2.75 | Score AFL 001 ([9]; 50 μg/ml (22.2 μM)): 3.75 | Score AFL 001 ([9]; 100 μg/ml (44.4 μM)): 3.75 | Score FMO 001 ([10]; 1.56 μg/ml (0.7 μM)): 0.0 | Score FMO 001 ([10]; 3.13 μg/ml (1.4 μM)): 0.5 | Score FMO 001 ([10]; 6.25 μg/ml (2.8 μM)): 1.0 | Score FMO 001 ([10]; 12.5 μg/ml (5.6 μM)): 2.5 | Score FMO 001 ([10]; 25 μg/ml (11.1 μM)): 4.0 | Score FMO 001 ([10]; 50 μg/ml (22.2 μM)): 4.0 | Score FMO 001 ([10]; 100 μg/ml (44.4 μM)): 4.0 | Score SSC 002 ([11]; 1.56 μg/ml (0.7 μM)): 0.0 | Score SSC 002 ([11]; 3.13 μg/ml (1.4 μM)): 0.0 | Score SSC 002 ([11]; 6.25 μg/ml (2.8 μM)): 0.0 | Score SSC 002 ([11]; 12.5 μg/ml (5.6 μM)): 4.0 | Score SSC 002 ([11]; 25 μg/ml (11.1 μM)): 4.0 | Score SSC 002 ([11]; 50 μg/ml (22.2 μM)): 4.0 | Score SSC 002 ([11]; 100 μg/ml (44.4 μM)): 4.0 | Score SSC ascospores ([12]; 1.56 μg/ml (0.7 μM)): 0.0 | Score SSC ascospores ([12]; 3.13 μg/ml (1.4 μM)): 0.0 | Score SSC ascospores ([12]; 6.25 μg/ml (2.8 μM)): 3.0 | Score SSC ascospores ([12]; 12.5 μg/ml (5.6 μM)): 4.0 | Score SSC ascospores ([12]; 25 μg/ml (11.1 μM)): 4.0 | Score SSC ascospores ([12]; 50 μg/ml (22.2 μM)): 4.0 | Score SSC ascospores ([12]; 100 μg/ml (44.4 μM)): 4.0

CMIII
MIC AFL 001 ([1]; value before parentheses): 60 µg/mL | MIC AFL 001 ([1]; value in parentheses): 15 µM | MIC FMO 001 ([3]; value before parentheses): 18.2 µg/mL | MIC FMO 001 ([3]; value in parentheses): 4.6 µM | MIC SSC 002 ([4]; value before parentheses): 24 µg/mL | MIC SSC 002 ([4]; value in parentheses): 6 µM

tachyplesin [tachyplesin crude]
Score FGR 008 ([6]; 1.56 μg/ml (0.7 μM)): 0.0 | Score FGR 008 ([6]; 3.13 μg/ml (1.4 μM)): 0.0 | Score FGR 008 ([6]; 6.25 μg/ml (2.8 μM)): 0.0 | Score FGR 008 ([6]; 12.5 μg/ml (5.6 μM)): 3.75 | Score FGR 008 ([6]; 25 μg/ml (11.1 μM)): 4.0 | Score FGR 008 ([6]; 50 μg/ml (22.2 μM)): 4.0 | Score FGR 008 ([6]; 100 μg/ml (44.4 μM)): 4.0 | Score (antifungal activity), Fusarium graminearum, isolate 5 [7]: 4.0 | Score FGR 005 ([7]; 1.56 μg/ml (0.7 μM)): 0.0 | Score FGR 005 ([7]; 3.13 μg/ml (1.4 μM)): 0.0 | Score FGR 005 ([7]; 6.25 μg/ml (2.8 μM)): 1.0 | Score FGR 005 ([7]; 12.5 μg/ml (5.6 μM)): 3.0 | Score FGR 005 ([7]; 25 μg/ml (11.1 μM)): 4.0 | Score FGR 005 ([7]; 50 μg/ml (22.2 μM)): 4.0 | Score FGR 005 ([7]; 100 μg/ml (44.4 μM)): 4.0 | Score (antifungal activity), Sclerotinia trifoliorum, isolate 1 [8]: 4.0 | Score AFL 001 ([9]; 1.56 μg/ml (0.7 μM)): 0.0 | Score AFL 001 ([9]; 3.13 μg/ml (1.4 μM)): 0.0 | Score AFL 001 ([9]; 6.25 μg/ml (2.8 μM)): 0.0 | Score AFL 001 ([9]; 12.5 μg/ml (5.6 μM)): 1.0 | Score AFL 001 ([9]; 25 μg/ml (11.1 μM)): 1.5 | Score AFL 001 ([9]; 50 μg/ml (22.2 μM)): 3.25 | Score AFL 001 ([9]; 100 μg/ml (44.4 μM)): 3.5 | Score FMO 001 ([10]; 1.56 μg/ml (0.7 μM)): 0.0 | Score FMO 001 ([10]; 3.13 μg/ml (1.4 μM)): 0.0 | Score FMO 001 ([10]; 6.25 μg/ml (2.8 μM)): 0.5 | Score FMO 001 ([10]; 12.5 μg/ml (5.6 μM)): 1.25 | Score FMO 001 ([10]; 25 μg/ml (11.1 μM)): 3.75 | Score FMO 001 ([10]; 50 μg/ml (22.2 μM)): 4.0 | Score FMO 001 ([10]; 100 μg/ml (44.4 μM)): 4.0 | Score SSC 002 ([11]; 1.56 μg/ml (0.7 μM)): 0.0 | Score SSC 002 ([11]; 3.13 μg/ml (1.4 μM)): 0.0 | Score SSC 002 ([11]; 6.25 μg/ml (2.8 μM)): 0.0 | Score SSC 002 ([11]; 12.5 μg/ml (5.6 μM)): 1.0 | Score SSC 002 ([11]; 25 μg/ml (11.1 μM)): 4.0 | Score SSC 002 ([11]; 50 μg/ml (22.2 μM)): 4.0 | Score SSC 002 ([11]; 100 μg/ml (44.4 μM)): 4.0 | Score SSC ascospores ([12]; 1.56 μg/ml (0.7 μM)): 0.0 | Score SSC ascospores ([12]; 3.13 μg/ml (1.4 μM)): 0.0 | Score SSC ascospores ([12]; 6.25 μg/ml (2.8 μM)): 0.0 | Score SSC ascospores ([12]; 12.5 μg/ml (5.6 μM)): 4.0 | Score SSC ascospores ([12]; 25 μg/ml (11.1 μM)): 4.0 | Score SSC ascospores ([12]; 50 μg/ml (22.2 μM)): 4.0 | Score SSC ascospores ([12]; 100 μg/ml (44.4 μM)): 4.0

CC[C@H](C)[C@@H]1NC(=O)CNC(=O)[C@H](CCCNC(=N)N)NC(=O)[C@H](Cc2ccc(O)cc2)NC(=O)[C@@H]2CSSC[C@H](NC1=O)C(=O)N[C@@H](Cc1ccc(O)cc1)C(=O)N[C@@H](CCCNC(=N)N)C(=O)N[C@@H](CCCNC(=N)N)C(=O)N[C@H](C(=O)N[C@@H](CCCNC(=N)N)C(=O)O)CSSC[C@H](NC(=O)[C@H](Cc1c[nH]c3ccccc13)NC(=O)[C@@H](N)CCCCN)C(=O)N[C@@H](Cc1ccccc1)C(=O)N[C@@H](CCCNC(=N)N)C(=O)N[C@@H](C(C)C)C(=O)N2 [tachyplesin] (H-KWCFRVCYRGICYRRCR-OH; disulfide 3-16, 7-12; N-terminus assumed)
MIC AFL 001 ([1]; value before parentheses): 6.25 µg/mL | MIC AFL 001 ([1]; value in parentheses): 2.8 µM | Dependence of MIC on buffer pH, AFL 001 [1]: None of the antimicrobials showed a discernible trend or optimum | MIC FMO 001 ([3]; value before parentheses): 6.25 µg/mL | MIC FMO 001 ([3]; value in parentheses): 2.8 µM | MIC SSC 002 ([4]; value before parentheses): 12.5 µg/mL | MIC SSC 002 ([4]; value in parentheses): 5.6 µM | Dependence of MIC on buffer pH, FGR 008 [5]: None of the antimicrobials showed a discernible trend or optimum
